Measured values reported in patent publication US9139575B2, “Broad spectrum antiviral and antiparasitic agents” (priority 2010, dated 2015).
Like-named read-outs stand apart in the source and are kept apart here.

How the values were obtained:
NDV = assay: microbe, parasite or virus in culture; assay type: cell-based, Newcastle disease virus; settings: for IC50: read-out: IC50 ± STD (nM) (N = x) NDV
[1] = Absorption spectra of compounds in DMSO; assay type: physicochemical; settings: for Abs Max: 100 μM in DMSO; for Relative integrated area from 400 to 700 nm: area under absorption curve, JL001 = 100
HSV = assay: Inhibition of HSV infection (Table 1); assay type: cell-based, herpes simplex virus; settings: for IC50: read-out: IC50 ± STD (nM) (N = x) HSV
HIV = assay: Inhibition of HIV infection (Table 1); assay type: cell-based, human immunodeficiency virus
[2] = Clinical observations after single dose in PK study; settings: for toxicity in vivo compared to the rhodanine derivatives: gavage, intravenous or intraperitoneal administration in mice
lipid-enveloped viruses [3] = assay: organism not typed; assay type: cell-based; settings: read-out: IC50 inhibition of infection of lipid-enveloped viruses
[4] = Pharmacokinetic profile after single po, ip or iv administration; settings: for bioavailability: female, Balb/c, mouse, plasma
Hela cells = assay: Cytotoxicity by MTT assay in dark or under light; assay type: cell-based; settings: Homo sapiens, exposed for 1 hour to light, MTT 24 hours later, read-out: concentration triggering death of 50% of treated cells
[5] = tested on: Semliki forest virus (SFV, alphavirus); assay type: cell-based
[6] = tested on: cytomegalovirus (CMV, herpesvirus); assay type: cell-based
Toxoplasma gondii = Toxoplasma gondii attachment and invasion of HFFs; assay type: cell-based; settings: 10 μM, normalized to DMSO control, preliminary
[7] = KT rate constant (Table 1); assay type: physicochemical; settings: values are KT × 10^−7
HIV (IIIB) = assay: HIV inactivation in packed red blood cells, TZM-BL luciferase readout; assay type: cell-based, human immunodeficiency virus; settings: 100 μM, 1 h white light, hematocrit 80%
lipid-enveloped viruses [8] = settings: reference [1], cited from earlier work
[9] = number of experiments in parentheses
[10] = Human immunodeficiency virus 1, number of experiments in parentheses, read-out: IC50 ± STD (nM) (N = x) HIV

## CCN1C(=S)O/C(=C\c2ccc(-c3ccc(N(C)C)cc3)n2C)C1=S [JL123]
NDV; avian paramyxovirus 1, Vero
  IC50: 49 nM
[1]
  Abs Max: 593 nm
HSV; [9]
  IC50: 75 ± 45 nM

## CCN1C(=S)N/C(=C\c2ccc(-c3ccccc3)o2)C1=S [JL105, (Z)-3-ethyl-5-((5-phenylfuran-2-yl)methylene)imidazolidine-2,4-dithione]
NDV; avian paramyxovirus 1, Vero
  IC50: > 100000 nM
[1]
  Abs Max: 521 nm

## CCN1C(=O)/C(=C/c2ccc(-c3ccccc3)o2)OC1=S [JL101, (Z)-3-ethyl-5-((5-phenylfuran-2-yl)methylene)-2-thioxooxazolidine-4-one]
NDV; avian paramyxovirus 1, Vero
  IC50: > 1000 nM
HIV; [10]
  IC50: > 1000 nM

## CCN1C(=S)O/C(=C\c2cc3ccccc3o2)C1=S [JL113, (Z)-5-(benzofuran-2-ylmethylene)-3-ethyloxazolidine-2,4-dithione]
NDV; avian paramyxovirus 1, Vero
  IC50: 865 nM

## CCN1C(=S)O/C(=C\c2ccc(-c3c(OC)cccc3OC)o2)C1=S [JL111, (Z)-3-Ethyl-5-(5-(2,6-dimethoxyphenyl)-furan-2-ylmethylene)oxazolidine-2,4-dithione]
NDV; avian paramyxovirus 1, Vero
  IC50: 12 nM
[1]
  Abs Max: 499 nm

## CCN1C(=S)O/C(=C\c2ccc(-c3ccccc3)o2)C1=S [JL102, (Z)-3-ethyl-5-((5-phenylfuran-2-yl)methylene)oxazolidine-2,4-dithione]
[2]; 10 mg/kg ip single dose
  clinical observations: appeared normal
[2]
  toxicity in vivo compared to the rhodanine derivatives: less toxicity
lipid-enveloped viruses [3]
  IC50: ~40 nM
[4]; ip, 10 mg/kg
  bioavailability: ~50%
[4]; po, 100 mg/kg
  bioavailability: 3.1 to 105%
Hela cells
  EC50: ~400 nM
[5]
  inhibition of SFV infection: inhibit the infection
NDV
  EC50 fold lower than LJ001's: about 10 fold
[6]
  inhibition of CMV infection: inhibit the infection

## CCN1C(=O)S/C(=C\c2ccc(-c3ccccc3)o2)C1=O [JL025, reference compound]
NDV
  IC50 ± STD (nM) (N = x) NDV: Not active (2)
HIV; [9]
  IC50 ± STD (nM) (N = x) HIV: Not active (4)
[1]
  Abs Max: 405 nm
HSV; [9]
  IC50 ± STD (nM) (N = x) HSV: Not active (1)

## CCN1C(=S)OC(Cc2ccc(-c3ccccc3)o2)C1=S (stereo not shown) [JL107]
Toxoplasma gondii
  inhibition of parasite attachment and invasion: most potent inhibition
Toxoplasma gondii; listed as 107
  inhibition of parasite attachment and invasion: inhibited parasite attachment and invasion
NDV; avian paramyxovirus 1, Vero
  IC50: 928 nM

## C=CCN1C(=O)/C(=C/c2ccc(-c3ccccc3)o2)SC1=S [LJ001, reference compound]
Toxoplasma gondii
  inhibition of parasite attachment and invasion: highly effective
[2]; 5 mg/kg ip single dose
  clinical observations: appeared normal
[2]; 10 mg/kg ip single dose
  clinical observations: 2 were sacrificed in moribund condition and 1 was found dead
[7]
  KT × 10^−7: 1.0 ± 0.1 M^−1s^−1
HIV (IIIB)
  HIV inactivation in packed RBC (luciferase activity, RLU): unable to inactivate HIV
lipid-enveloped viruses [8]
  IC95 viral infection common for all viruses tested: ~10000 nM
lipid-enveloped viruses [8]; read-out: IC50 viral infection common for all viruses tested
  IC50: ~1000 nM
[4]; 10 mg/kg iv, 5 mg/kg ip, 10 and 100 mg/kg po
  exposure: minimal exposure
[4]; mice, single dose
  elimination: ~700 mL/min/kg
  half-life: 12 min
NDV; avian paramyxovirus 1, Vero
  IC50: 207 nM
HIV; Human immunodeficiency virus 1, read-out: IC50 ± STD (nM) (N = x) HIV
  IC50: 183 ± 272 nM
[1]
  absorption peak: about 440 nm
  Abs Max: 457 nm
  Relative integrated area from 400 to 700 nm: 100
HSV
  IC50: 35 ± 48 nM

## CCN1C(=O)O/C(=C\c2ccc(-c3ccccc3)o2)C1=O [JL121, (Z)-3-ethyl-5-((5-phenylfuran-2-yl)methylene)oxazolidine-2,4-dione]
[7]
  KT × 10^−7: 2.5 ± 0.2 M^−1s^−1
NDV; avian paramyxovirus 1, Vero
  IC50: > 500000 nM
HSV; [9]
  IC50 ± STD (nM) (N = x) HSV: Not active (1)

## CCN1C(=S)O/C(=C\c2ccc(-c3c(OC)cc(OC)cc3OC)o2)C1=S [JL122, (Z)-3-Ethyl-5-(5-(2,4,6-tiimethoxyphenyl)-furan-2-ylmethylene)oxazolidine-2,4-dithione]
HIV (IIIB)
  HIV inactivation in packed RBC (luciferase activity, RLU): dramatically decrease the luciferase activity to near-background levels
NDV; avian paramyxovirus 1, Vero
  IC50: 1 nM
[1]
  Abs Max: 547 nm
HSV; [9]
  IC50: 3 ± 1 nM

## CCN1C(=S)O/C(=C\c2ccc(-c3cccc(OC)c3)o2)C1=S [JL117, (Z)-3-Ethyl-5-(5-(3-methoxyphenyl)-furan-2-ylmethylene)oxazolidine-2,4-dithione]
NDV; avian paramyxovirus 1, Vero
  IC50: 5 nM
[1]
  Abs Max: 504 nm
HSV; [9]
  IC50: 20 nM

## CCN1C(=O)/C(=C/c2ccc(-c3ccccc3)o2)NC1=S [JL104, (Z)-3-ethyl-5-((5-phenylfuran-2-yl)methylene)-2-thioxoimidazolidin-4-one]
NDV; avian paramyxovirus 1, Vero
  IC50: > 500000 nM
HIV; [9]
  IC50 ± STD (nM) (N = x) HIV: Not active
HSV; [9]
  IC50: > 500000 nM

## Cc1c(C)c2c(c(C)c1O)CC[C@@](C)(CCC[C@H](C)CCC[C@H](C)CCCC(C)C)O2 [alpha-tocopherol, reference compound]
NDV
  effect of antioxidant on antiviral activity of JL103: blocks the antiviral activity

## CCN1C(=S)O/C(=C\c2ccc(-c3ccc(OC)cc3)n2C)C1=S [JL119, (Z)-3-Ethyl-5-((5-(4-methoxyphenyl)-1-methyl-1H-pyrrole-2-yl)methylene)oxazolidine-2,4-dithione]
NDV; avian paramyxovirus 1, Vero
  IC50: 6 nM
[1]
  Abs Max: 551 nm

## CCN1C(=S)O/C(=C\c2ccc(-c3ccccc3OC)o2)C1=S [JL103, (Z)-3-ethyl-5-((5-(2-methoxyphenyl)furan-2-yl)methylene)oxazolidine-2,4-dithione]
Toxoplasma gondii
  inhibition of parasite attachment and invasion: inhibited parasite attachment and invasion
[2]; 10 mg/kg ip single dose
  clinical observations: appeared normal
[2]
  toxicity in vivo compared to the rhodanine derivatives: less toxicity
lipid-enveloped viruses [3]
  IC50: ~5 nM
[7]
  KT × 10^−7: 7.8 ± 0.6 M^−1s^−1
[4]; ip, 10 mg/kg
  bioavailability: ~50%
[4]; po, 100 mg/kg
  bioavailability: 3.1 to 105%
[5]
  inhibition of SFV infection: inhibit the infection
NDV
  EC50 fold lower than compound 1's: about 10 fold
NDV; avian paramyxovirus 1, Vero, read-out: EC90 antiviral activity on NDV
  EC90: ~15 nM
NDV; avian paramyxovirus 1, Vero
  IC50: 7 nM
[6]
  inhibition of CMV infection: inhibit the infection
HIV; [10]
  IC50: 3 nM
[1]
  absorption peak: about 500 nm
  Abs Max: 516 nm
  Relative integrated area from 400 to 700 nm: 153
[1]; times more than LJ001
  light absorbed relative to LJ001 (integrated area 400-700 nm): 1.53 times
HSV; [9]
  IC50: 2.3 ± 2.7 nM
